Like-named read-outs stand apart in the source and are kept apart here.
Test system: HBV rcDNA
Experiment: HepDE19 assay with bDNA quantitation of HBV rcDNA
Assay type: cell-based, hepatitis B virus
Method in brief: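 HepDE19 cells (HepG2-derived, Tet-regulated HBV replication) were deprived of tetracycline and then exposed to compounds for 7 days at 37 °C in 0.5% DMSO, 8-point titration from 25 μM. rcDNA was quantified by bDNA and EC50/EC90 came from 4-parameter fits. CC50 was measured by CellTiter-Glo ATP content on replicate plates after 4 days.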

[1] = HepDE19 assay, inhibition of formation of rcDNA, read-out: DE-19bDNA EC50
[2] = HepDE19 assay, inhibition of formation of relaxed circular DNA (rcDNA), bDNA quantitation, read-out: DE-19bDNA EC50
[3] = Hepatitis B virus, HepDE19, HepDE19 assay, inhibition of formation of rcDNA, read-out: DE-19bDNA EC50

Compound `CC(c1cnc(OCc2nc[nH]n2)c2ccccc12)N(C)C(=O)Nc1ccc(F)c(Cl)c1` (single isomer, unassigned) [Compound 146, 1-(1-(1-((1H-1,2,4-Triazol-3-yl)methoxy)isoquinolin-4-yl)ethyl)-3-(3-chloro-4-fluorophenyl)-1-methylurea] has an EC50 [1] of 0.05 µM.
`CC(c1cn(C)c(=O)c2cc(F)c(F)cc12)N(CCCO)C(=O)Nc1ccc(F)c(Cl)c1` (single isomer, unassigned) [Compound 350, 3-(3-Chloro-4-fluorophenyl)-1-(1-(6,7-difluoro-2-methyl-1-oxo-1,2-dihydroisoquinolin-4-yl)ethyl)-1-(3-hydroxypropyl)urea] showed an EC50 [2] of 3.6 µM.
With `CNC(=O)CN(C(=O)Nc1ccc(F)c(Cl)c1)C(C)c1c[nH]c(=O)c2ccccc12` (centres unmarked) [Compound 116, 2-(3-(3-Chloro-4-fluorophenyl)-1-(1-(1-oxo-1,2-dihydroisoquinolin-4-yl)ethyl)ureido)-N-methylacetamide] the EC50 [3] was 1 µM.
Work on `O=C(NCc1c[nH]c(=O)c2ccccc12)Nc1ccc(F)c(Cl)c1` [Compound 8, 1-(3-Chloro-4-fluorophenyl)-3-((1-oxo-1,2-dihydroisoquinolin-4-yl)methyl)urea] yielded an EC50 [3] of 6.8 µM.
`CC(c1c[nH]c(=O)c2ccc(F)cc12)N(C)C(=O)Nc1ccc(F)c(Cl)c1` (single isomer, unassigned) [Compound 169, 3-(3-Chloro-4-fluorophenyl)-1-(1-(6-fluoro-1-oxo-1,2-dihydroisoquinolin-4-yl)ethyl)-1-methylurea] showed an EC50 [1] of 2.1 µM.
`C[C@H](c1c[nH]c(=O)c2ccccc12)N(C)C(=O)Nc1ccnc(C(F)(F)F)c1` (single isomer, unassigned) [Compound 95] gave an EC50 (Hepatitis B virus, HepDE19, read-out: DE-19bDNA EC50 (μM), HepDE19 assay, inhibition of formation of rcDNA) of 1.1 µM.
`CC(c1c[nH]c(=O)c2cc(F)c(F)cc12)N(C)C(=O)NCc1cc(F)c(F)c(F)c1` (single isomer, unassigned) [Compound 481, 1-(1-(6,7-Difluoro-1-oxo-1,2-dihydroisoquinolin-4-yl)ethyl)-1-methyl-3-(3,4,5-trifluorobenzyl)urea] gave an EC50 [2] of 0.53 µM.
`COCCCN(C(=O)Nc1ccc(F)c(Cl)c1)C(C)c1c[nH]c(=O)c2ccccc12` (centres unmarked) [Compound 80] was tested, and the EC50 [1] was 0.03 µM.
In the case of `COc1ncc(CN(C)C(=O)Nc2ccc(F)c(Cl)c2)c2ccccc12` [Compound 2, 3-(3-Chloro-4-fluorophenyl)-1-((1-methoxyisoquinolin-4-yl)methyl)-1-methylurea], the EC50 [3] is reported as 2 µM.
With `CCN(C(=O)Nc1ccccc1)C(C)c1c[nH]c(=O)c2cc(F)c(F)cc12` (single isomer, unassigned) [Compound 405, 1-(1-(6,7-Difluoro-1-oxo-1,2-dihydroisoquinolin-4-yl)ethyl)-1-ethyl-3-phenylurea] the EC50 (read-out: DE-19bDNA EC50, HepDE19 assay, inhibition of formation of relaxed circular DNA (rcDNA), bDNA quantitation) was 0.058 µM.
`CC(c1c[nH]c(=O)c2cc(F)c(F)cc12)N(C)C(=O)NCc1ccc(F)c(Cl)c1` (single isomer, unassigned) [Compound 483, 3-(3-Chloro-4-fluorobenzyl)-1-(1-(6,7-difluoro-1-oxo-1,2-dihydroisoquinolin-4-yl)ethyl)-1-methylurea] was tested, and the EC50 [2] was 0.27 µM.
`CC(c1cnc(C(N)=O)c2ccccc12)N(C)C(=O)Nc1ccc(F)c(Cl)c1` (single isomer, unassigned) [Compound 329, 4-(1-(3-(3-Chloro-4-fluorophenyl)-1-methylureido)ethyl)isoquinoline-1-carboxamide] showed an EC50 [2] of 0.12 µM.
Work on `CC(C)CN(C(=O)Nc1ccc(F)c(Cl)c1)C(C)c1c[nH]c(=O)c2c(F)c(F)ccc12` (single isomer, unassigned) [Compound 338, 3-(3-Chloro-4-fluorophenyl)-1-(1-(7,8-difluoro-1-oxo-1,2-dihydroisoquinolin-4-yl)ethyl)-1-isobutylurea] yielded an EC50 [2] of 0.8 µM.
For `COCCCn1cc(C(C)N(C)C(=O)Nc2ccc(F)c(Cl)c2)c2ccccc2c1=O` (single isomer, unassigned) [Compound 200, 3-(3-Chloro-4-fluorophenyl)-1-(1-(2-(3-methoxypropyl)-1-oxo-1,2-dihydroisoquinolin-4-yl)ethyl)-1-methylurea], the EC50 [3] was 0.4 µM.
